Article PMC3197600 (PLoS Pathogens, 2011)

Assays:
Test in all cases: biochemical
[1] = target: p09N1 (pH1N1 N1 neuraminidase) (Influenza A virus (A/California/04/2009(H1N1)), UniProt C3W5S3); design: species or system 2009 pandemic influenza A H1N1 virus
[2] = target: p57N2 (pandemic A/RI/5+/1957 H2N2 N2 neuraminidase) (Influenza A virus, UniProt Q194T1); design: species or system influenza A virus A/RI/5+/1957 H2N2
[3] = target: N5 (avian H12N5 neuraminidase) (Influenza A virus (A/duck/Alberta/60/1976(H12N5)), UniProt A1ILL9)

For `[H]/N=C(\N)N[C@H]1C=C(C(=O)O)O[C@@H]([C@H](OC)[C@H](O)COC(=O)CCCCCCC)[C@@H]1NC(C)=O` [CS-8958, laninamivir octanoate], the IC50 [1] was 947 nM, the IC50 [2] was 129 nM and the IC50 [3] was 389 nM.
For `CO[C@@H]([C@@H]1OC(C(=O)O)=C[C@H](NC(=N)N)[C@H]1NC(C)=O)[C@H](O)CO` [laninamivir], the IC50 [2] was 3.12 nM and the IC50 [3] was 0.9 nM.
For `CCOC(=O)C1=C[C@@H](OC(CC)CC)[C@H](NC(C)=O)[C@@H](N)C1` [oseltamivir], the IC50 [2] was 0.79 nM and the IC50 [3] was 0.83 nM.
